# Experiment: TGMS mass loss due to water after exposure to stress conditions
# Format: physicochemical
# Conditions: between 6° and 160° C., after 2 days at 40° C. and 75% RH
compound,measurement,value
CC(C)(C)NC[C@H](O)c1cncc(F)c1.O=C(O)C(=O)O [Comparative Salt Example 9],mass loss (TGMS),no significant mass loss

# Source: patent publication US20250042856A1, “CRYSTALLINE FORM OF (R)-2-(TERT-BUTYLAMINO)-1-(5-FLUOROPYRIDIN-3-YL)-ETHAN-1-OL HEMI-TARTRATE SALT FOR THE TREATMENT OF HYPERGLYCEMIA AND DIABETES 2” (ATROGI AB, priority 2021, published 2025)
